Experimental findings from article PMC2631241 (Journal of combinatorial chemistry, 2008) are described below.

Usually Kd stands for the free concentration of one partner at which half of the binding sites on the other are occupied at equilibrium, for simple one-to-one binding. Lower therefore signals a tighter complex.

The target in the experiment is human serum albumin (HSA) (Homo sapiens, UniProt P02768). As to the kind of experiment: 1D 1H NMR line-broadening titration of ligand with HSA.
Sequence of human serum albumin (HSA) (P02768 25-609): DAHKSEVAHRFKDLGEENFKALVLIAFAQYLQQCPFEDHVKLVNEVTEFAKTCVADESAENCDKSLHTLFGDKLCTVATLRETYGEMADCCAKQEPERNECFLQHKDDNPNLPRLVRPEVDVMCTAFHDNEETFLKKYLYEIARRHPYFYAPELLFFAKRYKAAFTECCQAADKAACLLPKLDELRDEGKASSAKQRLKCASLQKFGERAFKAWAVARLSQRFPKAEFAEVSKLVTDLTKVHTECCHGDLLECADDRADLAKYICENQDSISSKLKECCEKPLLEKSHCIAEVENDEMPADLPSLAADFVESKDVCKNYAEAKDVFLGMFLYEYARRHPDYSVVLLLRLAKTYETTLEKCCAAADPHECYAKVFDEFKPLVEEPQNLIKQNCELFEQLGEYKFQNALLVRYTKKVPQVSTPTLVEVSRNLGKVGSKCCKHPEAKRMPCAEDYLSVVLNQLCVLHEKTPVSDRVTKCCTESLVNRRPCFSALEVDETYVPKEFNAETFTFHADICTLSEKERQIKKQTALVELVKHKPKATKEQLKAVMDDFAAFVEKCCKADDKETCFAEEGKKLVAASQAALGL
With `O=C1NC(=O)C(c2ccccc2)(c2ccccc2)N1` [Phenytoin, phenytoin], the affinity, expressed as Kd, was 132 ± 12.5 µM.
For `O=S1(=O)OC(c2ccc(O)cc2)(c2ccc(O)cc2)c2ccccc21` [Phenol Red, phenol red], the dissociation constant (Kd) was 36.8 ± 6.5 µM.
`CCOC(=O)C(C)(C)Oc1ccc(Cl)cc1` [Clofibrate, clofibrate] showed a Kd of 1.7 ± 3.4 µM.
